# According to patent publication US10273235B2, “Compositions and methods for inhibiting β-lactamase” (LegoChem Biosciences, Inc., priority 2015, dated 2019):
# Counter-ions that a name gives are not always drawn.
# Tests used:
# [1] = system: K. pneumoniae CL5761; assay: MIC of strain used for extraction of enzymes, K. pneumoniae CL5761 (KPC-3, TEM-216, SHV-5); format: cell-based; settings: BLI: 4 ug/mL
# Description: (§1) MIC90 (μg/mL) is the lowest concentration of an antibiotic that will inhibit the visible growth of 90% of microorganisms after incubation as compared with a control group to which the antibiotic is not treated.
# (§2) MIC values were measured by the broth microdilution method developed by the Clinical and Laboratory Standards Institute (CLSI) (see CLSI M07-A9, Methods for Dilution Antimicrobial Susceptibility Test for Bacteria that Grow Aerobically; Approved Standard-Ninth Edition (2012): CLSI, Villanova, Pa.). The in vitro antibacterial activity was measured with respect to the following 9 clinical isolates: P. aeruginosa (3 strains); K. pneumoniae (6 strains). The in vitro antibacterial activity of selected compounds was measured with respect to the following 15 clinical isolates: K. pneumoniae (15 strains).
# [2] = system: E. coli ECO200; assay: MIC of strain used for extraction of enzymes, E. coli ECO200 (NDM-1, TEM-1, CTX-M-15, EC (AmpC), OXA-2 type); format: cell-based
# [3] = system: E. coli K0519020; assay: MIC of strain used for extraction of enzymes, E. coli K0519020 (CTX-M-15, TEM-1, OXA-1, AmpC (NC_000913)); format: cell-based; settings: BLI: 4 ug/mL
# [4] = system: E. coli TOPDXA048; assay: MIC of strain used for extraction of enzymes, E. coli TOPDXA048 (OXA-48, TEM-116, AmpC (NC_000913)); format: cell-based
# [5] = system: E. aerogenes K9911729; assay: MIC of strain used for extraction of enzymes, E. aerogenes K9911729 (CMY-10, TEM-1, SHV-12, AmpC (DQ478697)); format: cell-based; settings: BLI: 4 ug/mL
# [6] = target: T1, CMY-10 β-lactamase (class C) (Klebsiella aerogenes, UniProt Q99QC1); assay: Inhibitory activity against β-lactamases (nitrocefin), CMY-10; format: biochemical
# T1 construct: MICs of bacterial strains used for extraction of enzymes; endogenous in cells
# T1 sequence (Q99QC1 24-382): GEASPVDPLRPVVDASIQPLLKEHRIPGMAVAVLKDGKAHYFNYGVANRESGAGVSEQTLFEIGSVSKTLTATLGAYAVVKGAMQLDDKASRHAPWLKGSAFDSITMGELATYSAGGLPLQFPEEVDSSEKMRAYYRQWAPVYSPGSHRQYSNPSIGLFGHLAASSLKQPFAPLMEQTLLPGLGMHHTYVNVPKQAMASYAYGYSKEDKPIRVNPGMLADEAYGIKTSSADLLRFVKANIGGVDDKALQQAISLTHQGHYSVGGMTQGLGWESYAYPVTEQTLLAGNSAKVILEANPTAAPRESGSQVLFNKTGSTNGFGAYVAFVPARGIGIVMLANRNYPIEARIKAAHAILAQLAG
# Description: More diluted stocks were prepared as necessary. Enzyme activity was determined by monitoring the change of absorbance at 492 nm using the characteristic molecular extinction coefficient (Δε492=17,400 M^−1 cm^−1) of nitrocefin by a Shimazu UV-1650PC spectrophotometer. The nitrocefin was purchased from OXOID. Kinetic measurements were run at 30° C. in 10 mM MES[2-(N-morpholino)ethanesulfonic acid]buffer (pH 6.8) or 10 mM MES[2-(N-morpholino)ethanesulfonic acid] buffer (pH 6.8), […] BSA and 50 mM sodium bicarbonate. Reactions were performed in 2.5 mL cuvettes with 100 μM nitrocefin and initiated by adding 1.5 nM to 2.5 nM enzyme. The first 180 s of each reaction was used to measure initial rates. Data were evaluated using Microsoft Excel. Concentration dependent inhibition of enzyme was measured using different concentrations of inhibitors resulting from two-fold dilution series. Reaction progress at every concentration of inhibitor was measured in triplicates. IC50 values were calculated using 4-parameter log fits using XL Fit curve fitting software (www.idbs.com) for Excel using the following equation:
# [formula] where y is the remaining enzyme activity (in %) and x is the corresponding concentration. he fitted IC50 parameter is the relative IC50, and is defined as the concentration giving a response half way between the fitted top (B) and bottom (A) of the curve.
# [7] = system: P. aeruginosa ATCC27853; assay: BLI potentiation MIC (broth microdilution), P. aeruginosa ATCC27853 (PoxB, AmpC); format: cell-based; settings: incubation 19 h; for MIC of Meropenem with BLI: BLI fixed 4 ug/ml
# Description: as §1, §2
# [8] = system: K. pneumoniae ATCC700603; assay: BLI potentiation MIC, K. pneumoniae ATCC700603 (SHV-3); format: cell-based; settings: Klebsiella pneumoniae, ATCC700603, 19 h, read-out: MIC of Ceftazidime alone, no BLI; incubation 19 h
# Description: as §1, §2
# [9] = system: K. pneumoniae 5576; assay: BLI potentiation MIC, K. pneumoniae 5576 (SHV-11, CMY-2, DHA-1, TEM-1); format: cell-based; settings: Klebsiella pneumoniae, 5576, 19 h, read-out: MIC of Ceftazidime alone, no BLI; incubation 19 h
# Description: as §1, §2
# [10] = system: K. pneumoniae 3784; assay: BLI potentiation MIC, K. pneumoniae 3784 (SHV-11, SHV-12, DHA-1); format: cell-based; settings: incubation 19 h; for MIC of Meropenem with BLI: BLI fixed 4 ug/ml
# Description: as §1, §2
# [11] = system: K. pneumoniae 4006; assay: BLI potentiation MIC, K. pneumoniae 4006 (SHV-12, CTX-M-15, TEM-1, OXA-9); format: cell-based; settings: Klebsiella pneumoniae, 4006, 19 h, read-out: MIC of Ceftazidime alone, no BLI; incubation 19 h
# Description: as §1, §2
# [12] = Mouse pharmacokinetics; format: in vivo, ICR mouse; settings: IV, 50 mg/kg, plasma; for AUC(0-inf) / Cmax / Tmax / clearance / half-life / Vd: ICR; for Vd: read-out: Vss
# Description: The pharmacokinetics values were evaluated in a mouse model. The test compound (50 mg/kg) was injected into the tail vein of 8 week old ICR mouse, weighing approximately 26-30 g. […] Lab conditions were temperature of 22±3° C. and humidity of 50±20%.
# [13] = system: P. aeruginosa ARC3506; assay: BLI potentiation MIC, P. aeruginosa ARC3506 (VEB-1, OXA-10, OprD−, AmpC); format: cell-based; settings: BLI fixed 4 ug/ml; incubation 19 h
# Description: as §1, §2
# [14] = system: P. aeruginosa ARC3514; assay: BLI potentiation MIC, P. aeruginosa ARC3514 (KPC-2, OprD−, AmpC); format: cell-based; settings: BLI fixed 4 ug/ml; incubation 19 h
# Description: as §1, §2
# [15] = system: K. pneumoniae NDM-506; assay: BLI potentiation MIC, K. pneumoniae NDM-506; format: cell-based; settings: BLI fixed 4 ug/ml; incubation 19 h
# Description: as §1, §2
# [16] = system: K. pneumoniae 4248; assay: BLI potentiation MIC, K. pneumoniae 4248 (SHV-11, CTX-M-15, TEM-1, OXA-1); format: cell-based; settings: BLI fixed 4 ug/ml; incubation 19 h
# Description: as §1, §2
structure (smiles),measurement,setting,value
NC(=O)[C@@H]1CC[C@@H]2CN1C(=O)N2OS(=O)(=O)O [Avibactam],MIC of Meropenem with BLI,[1],1 µg/mL
same,MIC,"[1]; Klebsiella pneumoniae, CL5761, read-out: MIC of LCB10-0200 with BLI",16 µg/mL
same,MIC of Meropenem with BLI,[2]; BLI: 4 ug/mL,>64 µg/mL
same,MIC,"[2]; Escherichia coli, ECO200, read-out: MIC of LCB10-0200 with BLI",> 64 µg/mL
same,MIC of Meropenem with BLI,[3],0.25 µg/mL
same,MIC,"[3]; Escherichia coli, K0519020, read-out: MIC of LCB10-0200 with BLI",0.25 µg/mL
same,MIC of Meropenem with BLI,[4]; BLI: 4 ug/mL,0.5 µg/mL
same,MIC,"[4]; Escherichia coli, TOPDXA048, read-out: MIC of LCB10-0200 with BLI",0.25 µg/mL
same,MIC of Meropenem with BLI,[5],0.5 µg/mL
same,MIC,"[5]; Klebsiella aerogenes, K9911729, read-out: MIC of LCB10-0200 with BLI",2 µg/mL
same,IC50,[6],13 nM
CC(C)(O/N=C(\C(=O)N[C@@H]1C(=O)N2C(C(=O)[O-])=C(C[n+]3ccccc3)CS[C@H]12)c1csc(N)n1)C(=O)O [Ceftazidime],MIC,"[7]; Pseudomonas aeruginosa, ATCC27853, 19 h, read-out: MIC of Ceftazidime alone, no BLI",2 µg/mL
same,MIC,[8],32 µg/mL
same,MIC,[9],> 64 µg/mL
same,MIC,"[10]; Klebsiella pneumoniae, 3784, 19 h, read-out: MIC of Ceftazidime alone, no BLI",> 64 µg/mL
same,MIC,[11],> 64 µg/mL
"NCC1CC([C@@H]2CC[C@@H]3CN2C(=O)N3OS(=O)(=O)O)=NO1 (stereo partly drawn) [Example 2, [(2S,5R)-2-[5-(aminomethyl)-4,5-dihydroisoxazol-3-yl]-7-oxo-1,6-diazabicyclo[3.2.1]octan-6-yl] hydrogen sulfate]",AUC(0-inf),[12],34500 ± 3610 ng·h/mL
same,Cmax,[12],74.4 ± 3.44 µg/mL
same,Tmax,[12],4.8 min
same,clearance,[12],24.3 mL/min/kg
same,half-life,[12],88.2 ± 9.6 min
same,Vd,[12],1.57 ± 0.12 L/kg
same,AUCnorm,[12],0.69 ± 0.07 kg·h/L
same,"Cmax, norm",[12],1.49 ± 0.07 kg/L
"NCC1(CN)CC([C@@H]2CC[C@@H]3CN2C(=O)N3OS(=O)(=O)O)=NO1 [Example 5, [(2S,5R)-2-[5,5-bis(aminomethyl)-4H-isoxazol-3-yl]-7-oxo-1,6-diazabicyclo[3.2.1]octan-6-yl] hydrogen sulfate]",AUC(0-inf),[12],55300 ± 4160 ng·h/mL
same,Cmax,[12],103 ± 9.93 µg/mL
same,Tmax,[12],4.8 min
same,clearance,[12],15.2 mL/min/kg
same,half-life,[12],191 ± 93.6 min
same,Vd,[12],2.23 ± 0.61 L/kg
same,AUCnorm,[12],1.11 ± 0.08 kg·h/L
same,"Cmax, norm",[12],2.06 ± 0.20 kg/L
"NC(=O)CN1CCC2(CC([C@@H]3CC[C@@H]4CN3C(=O)N4OS(=O)(=O)O)=NO2)C1 (stereo partly drawn) [Example 12, [(2S,5R)-2-[7-(2-amino-2-oxo-ethyl)-1-oxa-2,7-diazaspiro[4.4]non-2-en-3-yl]-7-oxo-1,6-diazabicyclo[3.2.1]octan-6-yl] hydrogen sulfate]",MIC of Meropenem with BLI,[7],2 µg/mL
same,MIC of Meropenem with BLI,[13],64 µg/mL
same,MIC of Meropenem with BLI,[14],>64 µg/mL
same,MIC of Meropenem with BLI,[15],>64 µg/mL
same,MIC of Meropenem with BLI,[10],1 µg/mL
same,MIC of Meropenem with BLI,[16],0.125 µg/mL
"NCC1(CO)CC([C@@H]2CC[C@@H]3CN2C(=O)N3OS(=O)(=O)O)=NO1 (stereo partly drawn) [Example 13, [(2S,5R)-2-[5-(aminomethyl)-5-(hydroxymethyl)-4H-isoxazol-3-yl]-7-oxo-1,6-diazabicyclo[3.2.1]octan-6-yl] hydrogen sulfate]",MIC of Meropenem with BLI,[7],2 µg/mL
same,MIC of Meropenem with BLI,[13],32 µg/mL
same,MIC of Meropenem with BLI,[14],>64 µg/mL
same,MIC of Meropenem with BLI,[15],>64 µg/mL
same,MIC of Meropenem with BLI,[10],0.25 µg/mL
same,MIC of Meropenem with BLI,[16],0.0625 µg/mL
"NCC1(C(N)=O)CC([C@@H]2CC[C@@H]3CN2C(=O)N3OS(=O)(=O)O)=NO1 (stereo partly drawn) [Example 14, [(2S,5R)-2-[5-(aminomethyl)-5-carbamoyl-4H-isoxazol-3-yl]-7-oxo-1,6-diazabicyclo[3.2.1]octan-6-yl] hydrogen sulfate]",MIC of Meropenem with BLI,[7],2 µg/mL
same,MIC of Meropenem with BLI,[13],64 µg/mL
same,MIC of Meropenem with BLI,[14],>64 µg/mL
same,MIC of Meropenem with BLI,[15],>64 µg/mL
same,MIC of Meropenem with BLI,[10],0.25 µg/mL
same,MIC of Meropenem with BLI,[16],0.0625 µg/mL
